Where two headings read alike, the source gives them in different places.
Key:
[1] = test system: H460 non cell lung cancer human tumor cell line; test: In vitro human tumor cell line cytotoxicity / proliferation assay (AlamarBlue) with and without AKR1C3 inhibitor; format: cell-based
Method: In vitro proliferation data on the H460 […] human tumor cell line is determined based on IC50 measured by exposure of compounds at various concentrations for 2 hrs followed by a wash step and addition of fresh media followed by growth and cell viability staining and comparison to a media only treated control.
Specifically, exponentially growing cells are seeded at a density of 4×10^3 cells per well in a 96 well plate and incubated at 37° C. in 5% CO2, 95% air and 100% relative humidity for 24 hours prior to addition of test compounds. Compounds are solubilized in 100% DMSO at 200 times the desired final test concentration. At the time of drug addition, compounds are further diluted to 4 times the desired final concentration with complete medium. Aliquots of 50 μl of compound at specified concentrations are added to microtiter wells already containing 150 μl of medium, resulting in the final drug concentration reported. After drug addition the plates are incubated 72 hrs at 37° C., 5% CO2, 95% air and 100% relative humidity. At the end of this incubation, the viable cells are quantified using the AlamarBlue assay. The drug concentration resulting in growth inhibition of 50% (IC50) is calculated using Prism software (Irvine, Calif.).
Cell proliferation were performed in the presence (3 micromolar) and absence of a specific inhibitor of the AKR 1C3 enzyme. The case of added inhibitor was added to cell culture 2 hours prior to compound treatment. The inhibitor used was compound 36 in Flanagan, et al, Bioorganic and Medicinal Chemistry (2014) p 962-977.
Proliferation data of TH compounds in H460 in the presence/absence of the specific AKR 1C3 inhibitor

AKR1C3 = target: T1, AKR1C3 (Homo sapiens, UniProt P42330); conditions: cited from earlier work
T1 sequence (P42330 1-323): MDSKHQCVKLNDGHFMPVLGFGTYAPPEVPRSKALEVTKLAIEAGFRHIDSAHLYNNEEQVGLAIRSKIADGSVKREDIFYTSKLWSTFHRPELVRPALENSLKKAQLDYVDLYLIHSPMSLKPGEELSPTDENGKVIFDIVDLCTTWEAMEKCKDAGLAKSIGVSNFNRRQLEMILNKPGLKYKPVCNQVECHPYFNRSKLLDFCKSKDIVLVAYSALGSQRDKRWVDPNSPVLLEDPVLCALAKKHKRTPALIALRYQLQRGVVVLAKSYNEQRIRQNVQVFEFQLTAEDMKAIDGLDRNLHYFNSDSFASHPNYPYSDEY

[2] = tested as water soluble phosphate prodrug PR 104P; cited from earlier work
[3] = NCI-H460, H460 cells, absence of specific AKR 1C3 inhibitor, read-out: IC50 (without inhibitor)
[4] = NCI-H460, H460 cells, presence of 3 micromolar specific AKR 1C3 inhibitor added 2 hours prior to compound treatment, read-out: IC50 (with inhibitor)

SMILES | IC50 [1, 3] | IC50 [1, 4] | IC50 ([1]; NCI-H460, read-out: IC50 (without inhibitor)) | substrate for AKR1C3 (AKR1C3) | efficacy in clinical trials [2]
CC(=O)O[C@H]1C(=O)[C@@]2(C)[C@H]([C@H](OC(=O)c3ccccc3)[C@]3(O)C[C@H](OC(=O)[C@H](OC(=O)N(C)CCN(C)C(=O)OCc4ccc([N+](=O)[O-])c(Oc5ccc6ncccc6c5)c4)[C@@H](NC(=O)c4ccccc4)c4ccccc4)C(C)=C1C3(C)C)[C@]1(OC(C)=O)CO[C@@H]1C[C@@H]2O [TH3047] | 30 nM | 30000 nM | – | – | –
CC(=O)O[C@H]1C(=O)[C@@]2(C)[C@H]([C@H](OC(=O)c3ccccc3)[C@]3(O)C[C@H](OC(=O)[C@H](OC(=O)N(C)CCN(C)C(=O)OC(C)c4ccc([N+](=O)[O-])c(Oc5ccc6ncccc6c5)c4)[C@@H](NC(=O)c4ccccc4)c4ccccc4)C(C)=C1C3(C)C)[C@]1(OC(C)=O)CO[C@@H]1C[C@@H]2O (stereo partly shown) [TH3054] | 30 nM | 91000 nM | – | – | –
CCN(CCCCBr)P(=O)(OCc1ccc([N+](=O)[O-])c(Oc2ccc(-c3ccccc3)cc2)c1)OCC1OC(n2ccc(N)nc2=O)C(F)(F)C1O (stereo not shown) [TH3057] | – | – | 200 nM | – | –
CS(=O)(=O)OCCN(CCBr)c1c(C(=O)NCCO)cc([N+](=O)[O-])cc1[N+](=O)[O-] [PR 104] | – | – | – | weak substrate | ineffective
